Target: T1, human full-length recombinant PKC βII (Homo sapiens, UniProt P05771)
T1 construct: Active human full-length recombinant PKC βII; purchased Invitrogen GmbH, Darmstadt, Germany
Experiment: Determination of PKC βII inhibition (Caliper mobility-shift kinase assay, Fluorescein-RFARKGSLRQKNV peptide substrate)
Type: biochemical
Settings: example compounds at a final concentration of 1.14 μM (±0.15 μM)
Procedure, shortened: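 Full-length PKC βII (30 ng/ml in pre-dilution) with PS/DAG/Ca2+ activators, pH 7.4; fluorescein peptide and ATP at 3 μM and 120 μM before mixing. Reaction ran 60 min at 32 °C, was EDTA-stopped, and was read by mobility shift. % inhibition came from product/(substrate+product) peak heights, tested at 1.14 μM final.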

T1 sequence (P05771 1-673 isoform P05771-2): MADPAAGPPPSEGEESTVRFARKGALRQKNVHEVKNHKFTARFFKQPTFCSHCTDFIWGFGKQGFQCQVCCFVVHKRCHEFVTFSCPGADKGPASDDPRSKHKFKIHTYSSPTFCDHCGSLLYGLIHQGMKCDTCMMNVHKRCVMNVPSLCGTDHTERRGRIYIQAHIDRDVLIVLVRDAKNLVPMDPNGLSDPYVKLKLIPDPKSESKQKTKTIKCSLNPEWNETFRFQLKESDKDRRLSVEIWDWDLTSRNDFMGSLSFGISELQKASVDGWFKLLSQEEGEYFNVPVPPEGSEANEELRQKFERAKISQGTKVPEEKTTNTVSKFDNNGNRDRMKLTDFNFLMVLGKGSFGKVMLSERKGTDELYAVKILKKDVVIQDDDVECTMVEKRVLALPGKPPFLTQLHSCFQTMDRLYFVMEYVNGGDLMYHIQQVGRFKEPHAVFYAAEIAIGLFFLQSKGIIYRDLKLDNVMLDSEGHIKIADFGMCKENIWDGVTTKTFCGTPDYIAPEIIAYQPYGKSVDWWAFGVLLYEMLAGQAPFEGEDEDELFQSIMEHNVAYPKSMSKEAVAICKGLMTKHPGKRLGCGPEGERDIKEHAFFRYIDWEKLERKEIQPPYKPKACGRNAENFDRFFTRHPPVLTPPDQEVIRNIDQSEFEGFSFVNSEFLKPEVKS

inhibition at 1.14 µM	SMILES
89%	Cc1n[nH]c2nc(-c3ccc(O)cc3)cc(C(=O)N3CCC4(CCCNC4)C3)c12 (stereo not shown) [Example 235, (2,7-Diaza-spiro[4.5]dec-2-yl)-[6-(4-hydroxy-phenyl)-3-methyl-1H-pyrazolo[3,4-b]pyridin-4-yl]-methanone]
84%	Cc1n[nH]c2nc(-c3ccc(O)cc3)cc(C(=O)N3CCC4(CCNCC4)CC3)c12 [Example 236, (3,9-Diaza-spiro[5.5]undec-3-yl)-[6-(4-hydroxy-phenyl)-3-methyl-1H-pyrazolo[3,4-b]pyridin-4-yl]-methanone]
59%	Cc1n[nH]c2nc(-c3ccc(O)cc3)cc(C(=O)N3CC4(CCNCC4)c4ccccc43)c12 [Example 237]
77%	Cc1n[nH]c2nc(-c3ccc(O)cc3)cc(C(=O)N3CC[C@@H](N(C)C)C3)c12 [Example 238, ((R)-3-Dimethylamino-pyrrolidin-1-yl)-[6-(4-hydroxy-phenyl)-3-methyl-1H-pyrazolo[3,4-b]pyridin-4-yl]-methanone]
78%	Cc1n[nH]c2nc(-c3ccc(O)cc3)cc(C(=O)N3CC[C@H](N(C)C)C3)c12 [Example 239, ((S)-3-Dimethylamino-pyrrolidin-1-yl)-[6-(4-hydroxy-phenyl)-3-methyl-1H-pyrazolo[3,4-b]pyridin-4-yl]-methanone]
94%	CNC1CCN(C(=O)c2cc(-c3ccc(O)cc3)nc3[nH]nc(C)c23)C1 (stereo not shown) [Example 240, [6-(4-Hydroxy-phenyl)-3-methyl-1H-pyrazolo[3,4-b]pyridin-4-yl]-(3-methylamino-pyrrolidin-1-yl)-methanone]
88%	Cc1n[nH]c2nc(-c3ccc(O)cc3)cc(C(=O)N(C)C3CCNCC3)c12 [Example 241, 6-(4-Hydroxy-phenyl)-3-methyl-1H-pyrazolo[3,4-b]pyridine-4-carboxylic acid methyl-piperidin-4-yl-amide]
87%	Cc1n[nH]c2nc(-c3ccc(O)cc3)cc(C(=O)NC3CCCNC3)c12 (stereo not shown) [Example 242, 6-(4-Hydroxy-phenyl)-3-methyl-1H-pyrazolo[3,4-b]pyridine-4-carboxylic acid piperidin-3-ylamide]
78%	Cc1n[nH]c2nc(-c3ccc(O)cc3)cc(C(=O)NCC3CCCNC3)c12 (stereo not shown) [Example 243, 6-(4-Hydroxy-phenyl)-3-methyl-1H-pyrazolo[3,4-b]pyridine-4-carboxylic acid (piperidin-3-ylmethyl)-amide]
76%	CNCCCNC(=O)c1cc(-c2ccc(O)cc2)nc2[nH]nc(C)c12 [Example 244, 6-(4-Hydroxy-phenyl)-3-methyl-1H-pyrazolo[3,4-b]pyridine-4-carboxylic acid (3-methylamino-propyl)-amide]
83%	Cc1n[nH]c2nc(-c3ccc(O)cc3)cc(C(=O)NCC3CCCCN3)c12 (stereo not shown) [Example 245, 6-(4-Hydroxy-phenyl)-3-methyl-1H-pyrazolo[3,4-b]pyridine-4-carboxylic acid (piperidin-2-ylmethyl)-amide]
88%	Cc1n[nH]c2nc(-c3ccc(O)cc3)cc(C(=O)N3CC[C@H](N)C3)c12 [Example 246, ((S)-3-Amino-pyrrolidin-1-yl)-[6-(4-hydroxy-phenyl)-3-methyl-1H-pyrazolo[3,4-b]pyridin-4-yl]-methanone]
69%	Cc1n[nH]c2nc(-c3ccc(O)cc3)cc(C(=O)N3CC(N)C3)c12 [Example 247, (3-Amino-azetidin-1-yl)-[6-(4-hydroxy-phenyl)-3-methyl-1H-pyrazolo[3,4-b]pyridin-4-yl]-methanone]
83%	Cc1n[nH]c2nc(-c3ccc(O)cc3)cc(C(=O)NC3CNC3)c12 [Example 248, 6-(4-Hydroxy-phenyl)-3-methyl-1H-pyrazolo[3,4-b]pyridine-4-carboxylic acid azetidin-3-ylamide]
82%	Cc1n[nH]c2nc(-c3ccc(O)cc3)cc(C(=O)N3CCC(N)CC3)c12 [Example 249, (4-Amino-piperidin-1-yl)-[6-(4-hydroxy-phenyl)-3-methyl-1H-pyrazolo[3,4-b]pyridin-4-yl]-methanone]
85%	Cc1n[nH]c2nc(-c3ccc(O)cc3)cc(C(=O)N3C[C@H]4CNC[C@H]4C3)c12 [Example 250, (3aR,6aS)-Hexahydro-pyrrolo[3,4-c]pyrrol-2-yl-[6-(4-hydroxy-phenyl)-3-methyl-1H-pyrazolo[3,4-b]pyridin-4-yl]-methanone]
72%	Cc1n[nH]c2nc(-c3ccc(O)cc3)cc(C(=O)N[C@H]3C[C@H](N)C3)c12 [Example 252, 6-(4-Hydroxy-phenyl)-3-methyl-1H-pyrazolo[3,4-b]pyridine-4-carboxylic acid (trans-3-amino-cyclobutyl)-amide]

inhibition at 1.14 µM	SMILES
73%	Cc1n[nH]c2nc(-c3ccc(O)cc3)cc(C(=O)N3CCC4(CNCCO4)C3)c12 (stereo not shown) [Example 253, [6-(4-Hydroxy-phenyl)-3-methyl-1H-pyrazolo[3,4-b]pyridin-4-yl]-(6-oxa-2,9-diaza-spiro[4.5]dec-2-yl)-methanone]
80%	Cc1n[nH]c2nc(-c3ccc(O)cc3)cc(C(=O)NC3CCCC(N)C3)c12 (stereo not shown) [Example 254, 6-(4-Hydroxy-phenyl)-3-methyl-1H-pyrazolo[3,4-b]pyridine-4-carboxylic acid (3-amino-cyclohexyl)-amide]
90%	Cc1n[nH]c2nc(-c3ccc(O)cc3)cc(C(=O)N3CCC4(CC3)CNC4)c12 [Example 255, (2,7-Diaza-spiro[3.5]non-7-yl)-[6-(4-hydroxy-phenyl)-3-methyl-1H-pyrazolo[3,4-b]pyridin-4-yl]-methanone]
86%	Cc1n[nH]c2nc(-c3ccc(O)cc3)cc(C(=O)N3CCC4(CCNC4)C3)c12 (stereo not shown) [Example 256, (2,7-Diaza-spiro[4.4]non-2-yl)-[6-(4-hydroxy-phenyl)-3-methyl-1H-pyrazolo[3,4-b]pyridin-4-yl]-methanone]
82%	Cc1n[nH]c2nc(-c3ccc(O)cc3)cc(C(=O)N3CCC4(CCNC4)CC3)c12 [Example 257, (2,8-Diaza-spiro[4.5]dec-8-yl)-[6-(4-hydroxy-phenyl)-3-methyl-1H-pyrazolo[3,4-b]pyridin-4-yl]-methanone]
78%	Cc1n[nH]c2nc(-c3ccc(O)cc3)cc(C(=O)N3CCOC4(CCCNC4)C3)c12 (stereo not shown) [Example 258, [6-(4-Hydroxy-phenyl)-3-methyl-1H-pyrazolo[3,4-b]pyridin-4-yl]-(1-oxa-4,8-diaza-spiro[5.5]undec-4-yl)-methanone]
29%	Cc1n[nH]c2nc(-c3ccc(O)cc3)cc(C(=O)N3CCC4(CC3)CNCCO4)c12 [Example 259, [6-(4-Hydroxy-phenyl)-3-methyl-1H-pyrazolo[3,4-b]pyridin-4-yl]-(1-oxa-4,9-diaza-spiro[5.5]undec-9-yl)-methanone]
78%	Cc1n[nH]c2nc(-c3ccc(O)cc3)cc(C(=O)N3CCC4(CCNCC4)C3)c12 [Example 260, (2,8-Diaza-spiro[4.5]dec-2-yl)-[6-(4-hydroxy-phenyl)-3-methyl-1H-pyrazolo[3,4-b]pyridin-4-yl]-methanone]
70%	Cc1n[nH]c2nc(-c3ccc(O)cc3)cc(C(=O)N3CCOC4(CCNCC4)C3)c12 [Example 261, [6-(4-Hydroxy-phenyl)-3-methyl-1H-pyrazolo[3,4-b]pyridin-4-yl]-(1-oxa-4,9-diaza-spiro[5.5]undec-4-yl)-methanone]
59%	Cc1n[nH]c2nc(-c3ccc(O)cc3)cc(C(=O)N3CCCC4(CNCCO4)C3)c12 (stereo not shown) [Example 262, [6-(4-Hydroxy-phenyl)-3-methyl-1H-pyrazolo[3,4-b]pyridin-4-yl]-(1-oxa-4,8-diaza-spiro[5.5]undec-8-yl)-methanone]
65%	Cc1n[nH]c2nc(-c3ccc(O)cc3)cc(C(=O)N3CCCC4(CCNC4)C3)c12 (stereo not shown) [Example 263, (2,7-Diaza-spiro[4.5]dec-7-yl)-[6-(4-hydroxy-phenyl)-3-methyl-1H-pyrazolo[3,4-b]pyridin-4-yl]-methanone]
88%	Cc1n[nH]c2nc(-c3ccc(O)cc3)cc(C(=O)N3CCC(N)C3)c12 (stereo not shown) [Example 264, (3-Amino-pyrrolidin-1-yl)-[6-(4-hydroxy-phenyl)-3-methyl-1H-pyrazolo[3,4-b]pyridin-4-yl]-methanone]
87%	CC(=O)N1CCN(C(=O)c2cc(-c3ccc(O)cc3)nc3[nH]nc(C)c23)CC1 [Example 265, 1-{4-[6-(4-Hydroxy-phenyl)-3-methyl-1H-pyrazolo[3,4-b]pyridine-4-carbonyl]-piperazin-1-yl}-ethanone]
39%	Cc1n[nH]c2nc(-c3ccc(O)cc3)cc(C(=O)N3CC(=O)N4CCCCC4C3)c12 (stereo not shown) [Example 266, 2-[6-(4-Hydroxy-phenyl)-3-methyl-1H-pyrazolo[3,4-b]pyridine-4-carbonyl]-octahydro-pyrido[1,2-a]pyrazin-4-one]
32%	Cc1ccc(C(=O)N2CCN(C(=O)c3cc(-c4ccc(O)cc4)nc4[nH]nc(C)c34)CC2)cc1 [Example 267, [6-(4-Hydroxy-phenyl)-3-methyl-1H-pyrazolo[3,4-b]pyridin-4-yl]-[4-(4-methyl-benzoyl)-piperazin-1-yl]-methanone]
80%	CCN1CC2CC1CN2C(=O)c1cc(-c2ccc(O)cc2)nc2[nH]nc(C)c12 (stereo not shown) [Example 268, (5-Ethyl-2,5-diaza-bicyclo[2.2.1]hept-2-yl)-[6-(4-hydroxy-phenyl)-3-methyl-1H-pyrazolo[3,4-b]pyridin-4-yl]-methanone]
87%	Cc1n[nH]c2nc(-c3ccc(O)cc3)cc(C(=O)N3CCCN(C)CC3)c12 [Example 269, [6-(4-Hydroxy-phenyl)-3-methyl-1H-pyrazolo[3,4-b]pyridin-4-yl]-(4-methyl-[1,4]diazepan-1-yl)-methanone]

— patent publication US8686150B2 (Sanofi, priority 2011, dated 2014)
